Results as given in US20140193802A1, “IDENTIFICATION OF AN ALTERED THERAPEUTIC SUSCEPTIBILITY TO ANTI-HCMV COMPOUNDS AND OF A RESISTANCE AGAINST ANTI-HCMV COMPOUNDS” (priority 2012, published 2014).
Read-outs that look alike come from different tables or passages of the source.

Legend:
Type in all cases: cell-based, human cytomegalovirus (HCMV)
RV-HG UL56-C325Y = assay: GFP-RA, marker transfer mutant
Procedure: (§1) HCMV Fluorescence Reduction Assay (GFP-RA)
(§2) The susceptibilities of recombinant HCMV laboratory strains expressing GFP were determined by a GFP-based fluorescence reduction assay. For standard assays, 1.5×10^4 NHDF cells/well were cultured in black 96-well plates (Greiner Bio-One, Germany) and infected with either HCMV-GFP (MOI, 0.1) or RV-HG (MOI, 0.2 to 0.5). After virus adsorption, the virus inoculum was replaced with 200 μl fresh medium. Thereafter, 100 μl medium containing the test compounds was added to wells of horizontal row G, followed by serial 3-fold dilutions up to row A. All drug concentrations were tested at least in duplicate. Wells of the horizontal row H served as the virus control. Plates were incubated at 37° C. for 7 days. The medium was replaced by 200 μl PBS, and GFP units (GFPU) were determined by a charge-coupled-device-camera-based fluorescence detector (FluoBox; Bayer Technology Services GmbH, Leverkusen, Germany), which captures 96 images simultaneously. Drug effects were calculated as a percentage of reduction in GFPU in the presence of each drug concentration compared to the GFPU determined in the absence of drug. EC50 and EC90 values (drug concentrations producing 50% and 90% reduction in GFPU) were calculated using nonlinear regression curve fit with a variable slope. GraphPad Prism 3.02 or 4.0 software (GraphPad Software Inc., La Jolla, Calif.) was used for all analyses.
(§3) The HCMV AD169-derived bacterial artificial chromosome (BAC) pHG served as the backbone for the construction of the mutant viruses. The markerless introduction of point mutations into pHG was done using a two-step recombination protocol according to the en passant method. Briefly, a recombination fragment containing the I-SceI-AphAI cassette from plasmid pEPKan-S was obtained by PCR using primers containing ˜60 bp of homology to the intended integration site in ORF UL56 of BAC pHG and ˜20 bp specific for pEPKan-S. This fragment was electroporated into Escherichia coli GS1783 that harbored the pHG BAC. […] After successful kanamycin selection, all non-HCMV sequences were removed by an intrabacterial ISceI digest and a subsequent second Red recombination, resulting in the scarless repair of the mutated UL56 gene in the background of BAC pHG. The integrity of the generated BACs was confirmed by restriction enzyme digestion and sequencing. To reconstitute virus mutants, the recombinant BACs were transfected into permissive MRC5 cells. At least two independent virus clones per mutation were generated and evaluated.

RV-HG UL56-R369M = assay: GFP-RA, marker transfer mutant; details: for Resistance index (RI) = EC50 indicated RV-HG mutant/EC50 RV-HG wt: RV-HG UL56-R369M vs RV-HG wt
Procedure: as §1, §2, §3

RV-HG UL56-R369S = assay: GFP-RA, marker transfer mutant
Procedure: as §1, §2, §3

RV-HG UL56-L241P = assay: GFP-RA, marker transfer mutant
Procedure: as §1, §2, §3

RV-HG UL56-V231L = assay: GFP-RA, marker transfer mutant
Procedure: as §1, §2, §3

RV-HG UL56-L241P/R369S = assay: GFP-RA, marker transfer mutant; details: for Resistance index (RI) = EC50 indicated RV-HG mutant/EC50 RV-HG wt: RV-HG UL56-L241P/R369S vs RV-HG wt
Procedure: as §1, §2, §3

RV-HG UL56-V236M = assay: GFP-RA, marker transfer mutant
Procedure: as §1, §2, §3

RV-HG (wt-HCMV) = assay: HCMV fluorescence reduction assay (GFP-RA)
Procedure: as §1, §2, §3

RV-HG UL56-C325Yrev = assay: GFP-RA, marker transfer revertant
Procedure: as §1, §2, §3

RV-HG-UL56 mutants = assay: GFP-RA, drug susceptibility profile of the virus mutants; details: fluorescence reduction assays; for BAY 38-4766 and BDCRB with the exception of the strain carrying UL56 R369M
Procedure: as §1, §2
as §3, with “The integrity of the generated BACs was confirmed by restriction enzyme digestion and sequencing.” left out

[1] = Human betaherpesvirus 5, RV-HG UL56-R369M, fluorescence reduction assay, mean ± SD, read-out: EC50
[2] = Human betaherpesvirus 5, RV-HG UL56-R369S, fluorescence reduction assay, mean ± SD, read-out: EC50
[3] = Human betaherpesvirus 5, RV-HG UL56-V231L, fluorescence reduction assay, mean ± SD, read-out: EC50
[4] = Human betaherpesvirus 5, RV-HG UL56-L241P/R369S, fluorescence reduction assay, mean ± SD, read-out: EC50
[5] = Human betaherpesvirus 5, RV-HG UL56-C325Y, fluorescence reduction assay, mean ± SD, read-out: EC50
[6] = Human betaherpesvirus 5, RV-HG UL56-L241P, fluorescence reduction assay, mean ± SD, read-out: EC50
[7] = Human betaherpesvirus 5, RV-HG UL56-V236M, fluorescence reduction assay, mean ± SD, read-out: EC50
[8] = Human betaherpesvirus 5, RV-HG (wt-HCMV), fluorescence reduction assay, mean ± SD, read-out: EC50
[9] = Human betaherpesvirus 5, RV-HG UL56-C325Yrev, fluorescence reduction assay, mean ± SD, read-out: EC50

SMILES | EC50 (RV-HG UL56-R369M; [1]) [nM] | EC50 (RV-HG UL56-R369S; [2]) [nM] | EC50 (RV-HG UL56-V231L; [3]) [nM] | EC50 (RV-HG UL56-L241P/R369S; [4]) [nM] | sensitivity of the RV-HG-UL56 mutants compared with the parental wild-type virus RV-HG (RV-HG-UL56 mutants) | EC50 (RV-HG UL56-C325Y; [5]) [nM] | EC50 (RV-HG UL56-L241P; [6]) [nM] | EC50 (RV-HG UL56-V236M; [7]) [nM] | EC50 (RV-HG (wt-HCMV); [8]) [nM] | EC50 (RV-HG UL56-C325Yrev; [9]) [nM] | other results
Nc1nc2c(ncn2COCCO)c(=O)[nH]1 [Aciclovir] | 88000 ± 29000 | 45000 ± 10000 | 29000 ± 9000 | 81000 ± 33000 |  |  |  |  |  |  | EC50 (RV-HG UL56-C325Y; Human betaherpesvirus 5): 49000 ± 16000 nM; EC50 (RV-HG UL56-L241P; Human betaherpesvirus 5): 53000 ± 12000 nM; EC50 (RV-HG UL56-V236M; Human betaherpesvirus 5): 80000 ± 21000 nM; EC50 (RV-HG (wt-HCMV); Human betaherpesvirus 5): 74000 ± 40000 nM; EC50 (RV-HG UL56-C325Yrev; Human betaherpesvirus 5): 55000 ± 18000 nM
CN(C)c1cccc2c(S(=O)(=O)Nc3ccc(NC(=O)C(C)(C)CO)cc3)cccc12 [BAY384766] |  |  | 360 ± 80 |  | comparably active | 1070 ± 140 | 340 ± 140 | 330 ± 80 | 410 ± 150 | 580 ± 60 | EC50 (RV-HG UL56-R369M; Human betaherpesvirus 5): 1750 ± 160 nM; Resistance index (RI) = EC50 indicated RV-HG mutant/EC50 RV-HG wt (RV-HG UL56-R369M): 4; EC50 (RV-HG UL56-R369S; Human betaherpesvirus 5): 680 ± 130 nM; EC50 (RV-HG UL56-L241P/R369S; Human betaherpesvirus 5): 840 ± 310 nM; Resistance index (RI) = EC50 indicated RV-HG mutant/EC50 RV-HG wt (RV-HG UL56-L241P/R369S): 2
OC[C@H]1O[C@@H](n2c(Br)nc3cc(Cl)c(Cl)cc32)[C@H](O)[C@@H]1O [BDCRB] |  |  |  |  | comparably active |  |  |  |  |  | EC50 (RV-HG UL56-C325Y; RV-HG UL56-C325Y, fluorescence reduction assay, mean ± SD, read-out: EC50): 300 ± 40 nM; EC50 (RV-HG UL56-R369M; RV-HG UL56-R369M, fluorescence reduction assay, mean ± SD, read-out: EC50): 110 ± 50 nM; EC50 (RV-HG UL56-R369S; RV-HG UL56-R369S, fluorescence reduction assay, mean ± SD, read-out: EC50): 190 ± 20 nM; EC50 (RV-HG UL56-L241P; RV-HG UL56-L241P, fluorescence reduction assay, mean ± SD, read-out: EC50): 270 ± 40 nM; EC50 (RV-HG UL56-V231L; RV-HG UL56-V231L, fluorescence reduction assay, mean ± SD, read-out: EC50): 210 ± 40 nM; EC50 (RV-HG UL56-L241P/R369S; RV-HG UL56-L241P/R369S, fluorescence reduction assay, mean ± SD, read-out: EC50): 300 ± 140 nM; EC50 (RV-HG UL56-V236M; RV-HG UL56-V236M, fluorescence reduction assay, mean ± SD, read-out: EC50): 170 ± 30 nM; EC50 (RV-HG (wt-HCMV); RV-HG (wt-HCMV), fluorescence reduction assay, mean ± SD, read-out: EC50): 330 ± 120 nM; EC50 (RV-HG UL56-C325Yrev; RV-HG UL56-C325Yrev, fluorescence reduction assay, mean ± SD, read-out: EC50): 290 ± 40 nM
Nc1ccn(C[C@@H](CO)OCP(=O)(O)O)c(=O)n1 [Cidofovir] | 180 ± 110 | 160 ± 50 | 90 ± 20 | 200 ± 110 | did not differ | 350 ± 50 | 210 ± 90 | 260 ± 180 | 250 ± 170 | 320 ± 130 | 
N#CC1(C(=O)Nc2cc(F)cc(NS(=O)(=O)c3ccc(-c4noc(-c5cccc(N)n5)n4)cc3)c2)CC1 [Formula (X), N-{3-[({4-[5-(6-Aminopyridin-2-yl)-1,2,4-oxadiazol-3-yl]phenyl}sulfonyl)amino]-5-fluorophenyl}-1-cyanocyclopropanecarboxamide] | 96 ± 18 | 29.5 ± 13.7 | 7.1 ± 1.2 | 41.6 ± 18 |  | 36.7 ± 3.9 | 18.3 ± 10 | 8.6 ± 1.3 | 14.1 ± 7.9 | 31.7 ± 2.4 | Resistance index (RI) = EC50 indicated RV-HG mutant/EC50 RV-HG wt (RV-HG UL56-R369M): 7; Resistance index (RI) = EC50 indicated RV-HG mutant/EC50 RV-HG wt (RV-HG UL56-R369S; RV-HG UL56-R369S vs RV-HG wt): 2; Resistance index (RI) = EC50 indicated RV-HG mutant/EC50 RV-HG wt (RV-HG UL56-L241P/R369S): 3
O=C(O)P(=O)(O)O [Foscarnet] | 76000 ± 25000 | 61000 ± 21000 |  | 62000 ± 30000 | did not differ | 126000 ± 20000 | 115000 ± 71000 | 76000 ± 35000 | 111000 ± 55000 | 178000 ± 12000 | EC50 (RV-HG UL56-V231L; Human betaherpesvirus 5): 67000 ± 18000 nM
CC(C)Nc1nc2cc(Cl)c(Cl)cc2n1[C@H]1O[C@@H](CO)[C@H](O)[C@@H]1O [Maribavir] |  | 80 ± 30 |  |  |  | 290 ± 140 | 140 ± 70 |  | 180 ± 110 | 180 ± 70 | 
